Measurements taken from ChEMBL document CHEMBL1131321, “Pharmacophoric requirements for cannabinoid side chains: multiple bond and C1'-substituted delta 8-tetrahydrocannabinols” (J Med Chem, 1998).

Experiments:
[1] = molecular target: Cannabinoid receptor 2 (Mus musculus, UniProt P47936); experiment: The compound was evaluated for its affinity towards cannabinoid receptor 2 (CB2) in mouse spleen; format: tissue-based
[2] = molecular target: Cannabinoid receptor 1 (Rattus norvegicus, UniProt P20272); experiment: The compound was evaluated for its affinity towards cannabinoid receptor 1 (CB1) in rat brain; format: tissue-based
Cannabinoid receptor 1, sequence (P20272 whole entry): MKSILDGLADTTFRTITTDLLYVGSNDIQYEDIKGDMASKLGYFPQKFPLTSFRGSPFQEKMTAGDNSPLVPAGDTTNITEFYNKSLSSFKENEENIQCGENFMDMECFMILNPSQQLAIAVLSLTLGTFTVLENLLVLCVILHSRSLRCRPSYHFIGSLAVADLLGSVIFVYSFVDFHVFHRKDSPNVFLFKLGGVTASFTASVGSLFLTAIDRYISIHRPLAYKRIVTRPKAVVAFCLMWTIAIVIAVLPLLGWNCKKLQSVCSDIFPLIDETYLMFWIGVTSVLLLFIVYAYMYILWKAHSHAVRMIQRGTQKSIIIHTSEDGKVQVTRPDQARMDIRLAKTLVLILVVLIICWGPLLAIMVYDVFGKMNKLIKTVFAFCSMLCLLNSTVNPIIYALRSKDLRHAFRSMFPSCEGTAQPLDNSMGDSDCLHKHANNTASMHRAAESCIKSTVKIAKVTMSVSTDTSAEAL

Cannabinoid receptor 2, sequence (P47936 whole entry): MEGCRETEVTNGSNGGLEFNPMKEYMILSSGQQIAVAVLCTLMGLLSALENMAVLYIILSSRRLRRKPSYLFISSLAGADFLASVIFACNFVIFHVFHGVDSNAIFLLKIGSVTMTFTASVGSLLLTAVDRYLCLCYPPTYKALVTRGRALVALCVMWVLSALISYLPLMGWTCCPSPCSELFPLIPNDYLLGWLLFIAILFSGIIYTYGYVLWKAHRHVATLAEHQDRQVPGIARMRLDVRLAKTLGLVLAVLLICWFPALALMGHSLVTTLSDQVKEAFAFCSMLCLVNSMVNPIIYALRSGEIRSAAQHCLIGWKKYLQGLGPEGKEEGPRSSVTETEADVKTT

Compound | Ki ([1]; read-out: Ki) | Ki [2] | Ki [1]
C=C(C)[C@@H]1CCC(C)=C[C@H]1c1c(O)cc(C2(CCCCCC)SCCS2)cc1O | 0.0504 µM | 0.136 µM | –
CCCCCCC(O)c1cc(O)c2c(c1)OC(C)(C)[C@@H]1CC=C(C)C[C@@H]21 (stereo partly specified) | 0.0656 µM | 0.0864 µM | –
CCCCCC#Cc1cc(O)c2c(c1)OC(C)(C)[C@@H]1CC=C(C)C[C@@H]21 | 0.0031 µM | 0.00065 µM | –
CCCCCCC(=O)c1cc(O)c2c(c1)OC(C)(C)[C@@H]1CC=C(C)C[C@@H]21 | 0.0837 µM | 0.0217 µM | –
CCCCCCC1(c2cc(O)c3c(c2)OC(C)(C)[C@@H]2CC=C(C)C[C@@H]32)CC1 | 0.0033 µM | 0.00217 µM | –
CCCCCCC1(c2cc(O)c3c(c2)OC(C)(C)[C@@H]2CC=C(C)C[C@@H]32)SCCS1 | – | – | 0.00052 µM
